This passage reports IC50 results from US9340577B2, “HLA binding motifs and peptides and their uses” (priority 1992, dated 2016).

No end group written: not given here.

What all share (experiment): biochemical
The target in one assay is DRB1*1201 (Homo sapiens, UniProt P01903+P01911, A100R/A169T/D57E/D86V/F55L/H45Y/K41T/L162R/M171V/P40S/Q125H/Q178H/Q39Y/Q99D/R42G/S66L/T262R/V114A/V67L/W38E/Y59H/Y61H/Y89S). The class given is binding.
In a further assay the target is DRB1*1302 (Homo sapiens, UniProt P01903+P01911, A100E/A169T/K41T/L162R/M171V/P40S/Q125H/Q178H/Q39Y/Q99D/R42S/S66N/T262R/V115G/W38E/Y61H). The class given is binding.
DRB1*1302, sequence (P01903 26-254 limits assumed, other chains not shown): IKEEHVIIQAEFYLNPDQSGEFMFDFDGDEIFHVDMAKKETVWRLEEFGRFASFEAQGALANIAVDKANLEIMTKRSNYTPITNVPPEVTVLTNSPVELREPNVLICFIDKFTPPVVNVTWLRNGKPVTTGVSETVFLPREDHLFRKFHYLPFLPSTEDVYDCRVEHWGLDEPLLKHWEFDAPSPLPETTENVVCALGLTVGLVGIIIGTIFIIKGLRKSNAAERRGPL
The target in another assay is DR7 (DRB1*0701) (Homo sapiens, UniProt P01903+P01911, A100R/A102G/A103Q/D57E/D86V/E43K/F76Y/K127E/L162R/M171V/P40G/Q125H/Q99D/R33Q/R42Y/R54Q/S133A/S66F/T210M/V115G/Y107V/Y59L/Y89S). The class given is binding.
In a further assay the target is DRB1*0802 (Homo sapiens, UniProt P01903+P01911, A100R/A103L/A169T/F76Y/H45Y/I96F/K41T/L162R/M171V/P40S/Q125H/Q178H/Q39Y/Q99D/R218S/R42G/S66Y/V115G/W38E). The class given is binding.
The target in a further assay is DRB3*0101 (Homo sapiens, UniProt P01903+P79483). The class given is binding.
The next assay deals with DRB5*0101 (Homo sapiens, UniProt P01903+Q30154). As to conditions: Binding affinity DRB5 *0101.
The next assay deals with DRB1*1101 (Homo sapiens, UniProt P01903+P01911, A100R/A169T/A87E/I96F/K41T/L162R/M171V/P40S/Q125H/Q178H/Q39Y/Q99D/R42S/S66Y/T262R/V115G/W38E). As to conditions: Binding affinity DRB1 *1101.
DRB1*1101, sequence (P01903 26-254 limits assumed, other chains not shown): as above
The target in the next assay is DR1 (DRB1*0101) (Homo sapiens, UniProt P01903+P01911, A100R/D57E/F55L/F60I/F76Y/I96L/L162R/M171V/P40L/Q125E/R42F/V115G/Y59C). The class given is binding.
A further assay deals with DRB1*0901 (Homo sapiens, UniProt P01903+P01911, A100R/A103E/D57H/D86V/F55Y/F60I/F76Y/I96F/K127E/L162R/M171V/P40D/Q125H/Q99R/R33Q/R42F/S133A/S66N/T210M/V115G/W38K/Y107V/Y59G/Y89S). The class given is binding.
The target of another assay is DRB1*1501 (Homo sapiens, UniProt P01903+P01911). The class given is binding.
The target in another assay is DR4w4 (DRB1*0401) (Homo sapiens, UniProt P01903+P01911, A100K/A169T/F76Y/I96L/K127E/L162R/M171V/N62H/P40V/Q125Y/R42H/S133A/S149N/S66Y/V115G/V209L/W38E). The class given is binding.

The IC50 is the concentration at which inhibition is half-maximal.

For the compound `CC[C@H](C)[C@H](NC(=O)[C@@H]1CCCN1C(=O)[C@H](CC(=O)O)NC(=O)[C@@H](NC(=O)[C@@H]1CCCN1C(=O)[C@H](Cc1ccccc1)NC(=O)[C@@H](NC(=O)[C@H](CC(=O)O)NC(=O)[C@@H](NC(=O)[C@@H]1CCCN1C(=O)[C@H](CO)NC(=O)[C@@H](N)CCCNC(=N)N)[C@@H](C)CC)[C@@H](C)O)[C@@H](C)O)C(=O)N[C@@H](CCCCN)C(=O)N[C@@H](CCC(=O)O)C(=O)N[C@@H](CO)C(=O)O` [Peptide 68.0026], the IC50 against DRB1*1201, against DRB1*1302, against DR7 (DRB1*0701), against DRB1*0802, against DRB3*0101 and on DRB5*0101 was more than 20 µM throughout. Further, the IC50 at DRB1*1101 and against DR1 (DRB1*0101) was more than 20 µM throughout.

As for `CSCC[C@H](NC(=O)CNC(=O)[C@H](CC(C)C)NC(=O)[C@H](CCC(N)=O)NC(=O)[C@@H](NC(=O)[C@H](CC(C)C)NC(=O)[C@H](CCC(N)=O)NC(=O)CNC(=O)[C@@H](N)Cc1ccccc1)[C@@H](C)O)C(=O)N[C@@H](CCC(=O)O)C(=O)N[C@@H](CCC(N)=O)C(=O)N[C@@H](Cc1c[nH]cn1)C(=O)N[C@@H](Cc1ccc(O)cc1)C(=O)N[C@@H](CCC(=O)O)C(=O)N[C@@H](CC(C)C)C(=O)O` [Peptide 68.0028], the IC50 is 0.653 µM on DRB1*1201; more than 20 µM on DRB1*1302; more than 20 µM on DR7 (DRB1*0701); more than 20 µM on DRB1*0901; more than 20 µM on DRB1*1501; more than 20 µM at DRB1*0802. The IC50 at DRB3*0101 and on DRB1*1101 was more than 20 µM in each case.

For `CC[C@H](C)[C@H](NC(=O)[C@@H]1CCCN1C(=O)[C@H](CCC(N)=O)NC(=O)[C@@H](N)Cc1c[nH]c2ccccc12)C(=O)N1CCC[C@H]1C(=O)N[C@H](C(=O)N[C@@H](Cc1c[nH]cn1)C(=O)N[C@H](C(=O)N[C@H](C(=O)N1CCC[C@H]1C(=O)N[C@@H](CC(C)C)C(=O)N[C@@H](CO)C(=O)N[C@@H](CCC(=O)O)C(=O)N[C@@H](CC(=O)O)C(=O)N[C@@H](CCC(N)=O)C(=O)O)C(C)C)[C@@H](C)O)C(C)C` [Peptide 68.0039], the IC50 against DRB1*1201, on DRB1*1501, on DRB1*0802, at DRB3*0101, at DRB5*0101 and on DRB1*1101 was more than 20 µM in each case. At DR4w4 (DRB1*0401), this compound registered an IC50 of more than 20 µM.

As to `CSCC[C@H](NC(=O)[C@H](CC(=O)O)NC(=O)[C@H](Cc1ccc(O)cc1)NC(=O)[C@H](CC(C)C)NC(=O)[C@@H]1CCCN1C(=O)[C@H](Cc1c[nH]cn1)NC(=O)[C@@H]1CCCN1)C(=O)N[C@@H](CO)C(=O)N[C@@H](CC(C)C)C(=O)N[C@@H](CC(C)C)C(=O)N[C@@H](CCCCN)C(=O)N[C@@H](CC(N)=O)C(=O)N[C@@H](CCCNC(=N)N)C(=O)N[C@@H](Cc1ccccc1)C(=O)N[C@@H](CC(C)C)C(=O)O` [Peptide 68.0071], the IC50 on DRB1*1201 was 0.487 µM; at DRB1*0802, more than 20 µM; against DRB3*0101, more than 20 µM; on DRB1*1101, more than 20 µM; against DR4w4 (DRB1*0401) it was more than 20 µM.

`CC(C)C[C@H](NC(=O)[C@H](CCC(N)=O)NC(=O)[C@H](C)NC(=O)[C@H](CC(N)=O)NC(=O)[C@H](CCCCN)NC(=O)[C@@H](NC(=O)[C@H](CCCCN)NC(=O)[C@H](CC(N)=O)NC(=O)CN)C(C)C)C(=O)N[C@@H](C)C(=O)NCC(=O)N[C@@H](C)C(=O)N[C@@H](CCCCN)C(=O)NCC(=O)N[C@H](C(=O)O)C(C)C` [Peptide 68.0097]: the IC50 on DRB1*1201, on DRB1*1302, against DR7 (DRB1*0701), at DRB1*1501, on DRB1*0802 and against DRB3*0101 was more than 20 µM throughout. The half-inhibitory concentration (IC50) at DRB1*1101 was more than 20 µM.

As to `CC[C@H](C)[C@H](N)C(=O)N[C@@H](Cc1ccc(O)cc1)C(=O)N[C@@H](CO)C(=O)N[C@H](C(=O)N[C@@H](CO)C(=O)N[C@@H](CCSC)C(=O)N[C@@H](CCCCN)C(=O)N[C@@H](Cc1c[nH]cn1)C(=O)N1CCC[C@H]1C(=O)N[C@@H](CCC(N)=O)C(=O)N[C@@H](CCC(=O)O)C(=O)N[C@@H](CCSC)C(=O)N[C@@H](CCCCN)C(=O)N[C@H](C(=O)N[C@@H](Cc1ccc(O)cc1)C(=O)O)[C@@H](C)O)[C@@H](C)CC` [Peptide 68.0126], the IC50 was 11.4 µM at DRB1*1201, more than 20 µM on DRB1*1302 and more than 20 µM against DRB3*0101.

Regarding `CC[C@H](C)[C@H](NC(=O)[C@@H](NC(=O)[C@H](Cc1c[nH]cn1)NC(=O)[C@@H](N)CCCNC(=N)N)C(C)C)C(=O)N[C@@H](Cc1ccc(O)cc1)C(=O)N[C@@H](C)C(=O)N1CCC[C@H]1C(=O)N[C@@H](CO)C(=O)N[C@@H](CO)C(=O)N[C@@H](Cc1c[nH]cn1)C(=O)N[C@@H](CC(N)=O)C(=O)N[C@@H](CCCCN)C(=O)N[C@@H](Cc1ccc(O)cc1)C(=O)N[C@@H](C)C(=O)NCC(=O)O` [Peptide 68.0133], the IC50 was 7.08 µM at DRB1*1201, more than 20 µM against DR7 (DRB1*0701) and more than 20 µM against DRB3*0101.

With `CC[C@H](C)[C@H](NC(=O)[C@@H](N)CCC(=O)O)C(=O)N[C@H](C(=O)N[C@@H](CC(C)C)C(=O)N[C@@H](Cc1c[nH]cn1)C(=O)N[C@@H](CC(C)C)C(=O)N[C@@H](CCC(=O)O)C(=O)N1CCC[C@H]1C(=O)N[C@@H](CCC(N)=O)C(=O)N[C@@H](CC(N)=O)C(=O)N[C@@H](CCC(=O)O)C(=O)N[C@@H](CC(C)C)C(=O)N[C@@H](CC(=O)O)C(=O)N1CCC[C@H]1C(=O)N[C@H](C(=O)O)C(C)C)C(C)C` [Peptide 1543.20], the IC50 against DRB1*1201, at DRB1*0901, against DRB1*1501, on DRB1*0802, at DRB3*0101 and at DRB5*0101 was more than 20 µM each time. The compound further showed an IC50 at DRB1*1101 of more than 20 µM.

Consider DFEVFFQRLGIASGR [Peptide 68.0114], for which the half-inhibitory concentration (IC50) against DRB1*1201 was 2 µM; against DR7 (DRB1*0701), more than 20 µM; against DRB3*0101, more than 20 µM.

In the case of GNEIFNTSLFEPPPP [Peptide 68.0090], the IC50 against DRB1*1201, against DR7 (DRB1*0701), against DRB1*1501, at DRB1*0802, against DRB3*0101 and at DRB5*0101 was more than 20 µM throughout. Further, the IC50 at DRB1*1101 and against DR1 (DRB1*0101) was more than 20 µM throughout.

GQRVPVSHSFPHPLY [Peptide 68.0005]: the IC50 is 5.51 µM on DRB1*1201; more than 20 µM against DRB1*0802; more than 20 µM on DRB3*0101; more than 20 µM at DRB5*0101; more than 20 µM on DRB1*1101; more than 20 µM against DR4w4 (DRB1*0401).

Regarding GRAVCGGVLVHPQWV [Peptide 68.0062], the IC50 at DRB1*1201 was 16.4 µM; at DRB1*0802, more than 20 µM; against DRB3*0101, more than 20 µM; on DRB1*1101, more than 20 µM; on DR4w4 (DRB1*0401), more than 20 µM.

For the compound PEEFLRPRSLQCVSL [Peptide 68.0015], the IC50 is 6.02 µM against DRB1*1201, more than 20 µM against DRB3*0101, more than 20 µM at DRB5*0101 and more than 20 µM at DR4w4 (DRB1*0401).

Regarding PHPLYNMSLLKHQSL [Peptide 68.0007], the figures for the IC50 at DRB1*1201, on DR7 (DRB1*0701) and against DRB3*0101 were 0.86 µM, more than 20 µM and more than 20 µM, respectively.

For TNKFSGYPLYHSVYE [Peptide 68.0116], the IC50 against DRB1*1201 was 4.48 µM; against DRB1*1302 it was more than 20 µM; on DR7 (DRB1*0701), more than 20 µM; against DRB3*0101, more than 20 µM; at DRB1*1101, more than 20 µM.

For VILLGRHSLFHPEDT [Peptide 68.0068], the results for the IC50 at DRB1*1201, against DR7 (DRB1*0701) and against DRB3*0101 were 0.056 µM, more than 20 µM and more than 20 µM, respectively.

As for YDPLYCESVHNFTLP [Peptide 68.0041], the 50% inhibitory concentration (IC50) against DRB1*1201, on DRB1*1302, against DRB1*0802, against DRB3*0101, on DRB5*0101 and on DRB1*1101 was more than 20 µM each time.
